# Patent publication US8933195B2, “Histone deacetylase inhibitors and synthetic method thereof and use thereof in manufacture of medicaments” (Nanjing Yoko Biomedical R & D Ltd., priority 2011, dated 2015)
# Key:
# [1] = target: T1, HDAC7 (Homo sapiens, UniProt Q8WUI4); experiment: Measurement of biochemical activities of HDAC (fluorescently-labeled acetylated lysine substrate)
# T1 sequence (Q8WUI4 1-952): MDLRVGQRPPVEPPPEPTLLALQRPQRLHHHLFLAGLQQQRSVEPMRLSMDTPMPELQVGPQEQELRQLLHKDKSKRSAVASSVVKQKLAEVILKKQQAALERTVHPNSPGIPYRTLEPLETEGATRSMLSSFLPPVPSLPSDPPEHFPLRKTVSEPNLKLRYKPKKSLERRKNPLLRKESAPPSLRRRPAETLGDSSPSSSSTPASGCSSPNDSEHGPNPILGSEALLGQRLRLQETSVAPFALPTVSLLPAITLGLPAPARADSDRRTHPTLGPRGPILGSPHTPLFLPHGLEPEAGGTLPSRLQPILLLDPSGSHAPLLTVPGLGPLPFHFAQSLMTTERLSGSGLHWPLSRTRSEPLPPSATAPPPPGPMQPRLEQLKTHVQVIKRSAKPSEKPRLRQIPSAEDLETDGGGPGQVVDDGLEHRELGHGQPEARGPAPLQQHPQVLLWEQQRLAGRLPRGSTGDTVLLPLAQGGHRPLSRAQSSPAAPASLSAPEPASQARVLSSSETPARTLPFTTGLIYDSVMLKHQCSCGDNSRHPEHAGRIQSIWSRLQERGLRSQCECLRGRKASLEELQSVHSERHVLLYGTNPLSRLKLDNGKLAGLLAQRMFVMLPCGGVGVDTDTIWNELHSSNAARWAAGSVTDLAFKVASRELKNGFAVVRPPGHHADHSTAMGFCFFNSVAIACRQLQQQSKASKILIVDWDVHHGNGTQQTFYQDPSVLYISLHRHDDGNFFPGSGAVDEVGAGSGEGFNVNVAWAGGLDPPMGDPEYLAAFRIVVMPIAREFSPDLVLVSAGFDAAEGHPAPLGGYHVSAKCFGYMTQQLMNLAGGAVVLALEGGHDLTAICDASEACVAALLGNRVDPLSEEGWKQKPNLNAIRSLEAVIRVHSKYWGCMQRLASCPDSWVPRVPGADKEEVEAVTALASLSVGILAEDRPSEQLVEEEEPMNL
# In short: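 For both HDAC isoforms, fluorescent acetyl-lysine substrate ([…] in reaction) incubated with enzyme and compounds for 30 min at 37; developer then added for 15 min at room temperature. Fluorescence read at excitation 360 nm, emission 460 nm.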
# [2] = test system: Incap; experiment: MTT cancer cell growth inhibition; type: cell-based; settings: 72 h
# [3] = test system: human colon cancer HCT-116; experiment: Subcutaneously transplanted tumors in nude mice; type: in vivo, BALB/cA nude mice; parameters: key to RTV (mean ± SD): RTV = Vt/V0, tumor volume at time t over volume at d0; settings: for 1-T/C tumor inhibition rate / TV (mean ± SD) d0 / Weight d0 / RTV (mean ± SD) / TV (mean ± SD) d21: Table 1.1; for 1-T/C tumor inhibition rate: after three weeks; for RTV (mean ± SD) / TV (mean ± SD) d21: d21; for Tumor Volume TV (mean ± SD) d 0 / Tumor Volume TV (mean ± SD) d 3 / Tumor Volume TV (mean ± SD) d 7 / Tumor Volume TV (mean ± SD) d 10 / Tumor Volume TV (mean ± SD) d 14 / Tumor Volume TV (mean ± SD) d 17: Table 1.2; for Weight (mean ± SD) d 0 / Weight (mean ± SD) d 3 / Weight (mean ± SD) d 7 / Weight (mean ± SD) d 10 / Weight (mean ± SD) d 14 / Weight (mean ± SD) d 17 / Weight (mean ± SD) d 21: Table 1.3
# Procedure: The solvents are isopropanol and anhydrous ethanol (mixed in the volume ratio of 1:1). The test sample is dissolved with solvents and physiological saline in the ratio of 1:1 for use, and the above solvents and physiological saline are dissolved in the ratio of 1:1 as a negative control.
# The number of mice in each group: 12 mice in the negative control group, and 6 mice in the administration group.
# The cell strains are inoculated to the right axilla subcutaneous layer of the nude mice, with 5×10^6 per mouse. After formed, the transplanted tumors are passed down two generations in the nude mice and then used.
# Tumor tissues in the vigorous growth period are cut into about 1.5 mm^3, and inoculated to the right axilla subcutaneous layer of the nude mice under aseptic conditions. For the subcutaneously transplanted tumors of the nude mice, the diameter of the transplanted tumors is measured by a vernier caliper. The mice are randomly grouped after the tumors grow to 100-200 mm^3. […] The diameter of the transplanted tumors is measured twice per week in the whole experimental process, and meanwhile the weight of the mice is weighed. The calculation formula of tumor volume (TV) is TV=½×a×b^2, where a and b represent length and width, respectively.
# The relative tumor volume (RTV) is calculated according to the measured results, with the following calculation formula: RTV=Vt/V0, where V0 is the tumor volume obtained by measurement during administration in different cages (i.e., d0), Vt is the tumor volume obtained by measurement at each time. […] (Wc−WT)Wc×100%, where Wc is the tumor weight of the control group, and WT is the tumor weight of the treatment group.
compound,measurement,setting,value
C/C=C1\NC(=O)c2csc(n2)CNC(=O)C[C@@H](/C=C/CCSC(=O)CCCCCCC)OC(=O)[C@H](C(C)C)NC1=O [Compound 1-3],IC50 HDAC7,[1],no activity
same,GI50,[2],2000 nM
same,1-T/C tumor inhibition rate,[3]; 5 mg/kg q3d × 3w iv,7.92%
same,TV (mean ± SD) d0,[3]; 5 mg/kg q3d × 3w iv,122 ± 25 mm^3
same,Weight d0,[3]; 5 mg/kg q3d × 3w iv,16.7 g
same,RTV (mean ± SD),[3]; 5 mg/kg q3d × 3w iv,9.56 ± 2.44
same,TV (mean ± SD) d21,[3]; 5 mg/kg q3d × 3w iv,1166 ± 201 mm^3
same,1-T/C tumor inhibition rate,[3]; 10 mg/kg q3d × 3w iv,39.71%
same,TV (mean ± SD) d0,[3]; 10 mg/kg q3d × 3w iv,120 ± 19 mm^3
same,Weight d0,[3]; 10 mg/kg q3d × 3w iv,17.5 g
same,RTV (mean ± SD),[3]; 10 mg/kg q3d × 3w iv,6.26 ± 3.33
same,TV (mean ± SD) d21,[3]; 10 mg/kg q3d × 3w iv,751 ± 244 mm^3
same,1-T/C tumor inhibition rate,[3]; 20 mg/kg q3d × 3w iv,70.26%
same,TV (mean ± SD) d0,[3]; 20 mg/kg q3d × 3w iv,116 ± 26 mm^3
same,Weight d0,[3]; 20 mg/kg q3d × 3w iv,16.7 g
same,RTV (mean ± SD),[3]; 20 mg/kg q3d × 3w iv,3.09 ± 3.14
same,TV (mean ± SD) d21,[3]; 20 mg/kg q3d × 3w iv,358 ± 201 mm^3
same,Tumor Volume TV (mean ± SD) d 0,[3]; 5 mg/kg,122 ± 25 mm^3
same,Tumor Volume TV (mean ± SD) d 3,[3]; 5 mg/kg,179 ± 15 mm^3
same,Tumor Volume TV (mean ± SD) d 7,[3]; 5 mg/kg,343 ± 58 mm^3
same,Tumor Volume TV (mean ± SD) d 10,[3]; 5 mg/kg,454 ± 41 mm^3
same,Tumor Volume TV (mean ± SD) d 14,[3]; 5 mg/kg,605 ± 60 mm^3
same,Tumor Volume TV (mean ± SD) d 17,[3]; 5 mg/kg,895 ± 138 mm^3
same,Tumor Volume TV (mean ± SD) d 0,[3]; 10 mg/kg,120 ± 19 mm^3
same,Tumor Volume TV (mean ± SD) d 3,[3]; 10 mg/kg,163 ± 38 mm^3
same,Tumor Volume TV (mean ± SD) d 7,[3]; 10 mg/kg,217 ± 67 mm^3
same,Tumor Volume TV (mean ± SD) d 10,[3]; 10 mg/kg,302 ± 105 mm^3
same,Tumor Volume TV (mean ± SD) d 14,[3]; 10 mg/kg,408 ± 70 mm^3
same,Tumor Volume TV (mean ± SD) d 17,[3]; 10 mg/kg,571 ± 175 mm^3
same,Tumor Volume TV (mean ± SD) d 0,[3]; 20 mg/kg,116 ± 26 mm^3
same,Tumor Volume TV (mean ± SD) d 3,[3]; 20 mg/kg,129 ± 10 mm^3
same,Tumor Volume TV (mean ± SD) d 7,[3]; 20 mg/kg,155 ± 28 mm^3
same,Tumor Volume TV (mean ± SD) d 10,[3]; 20 mg/kg,193 ± 68 mm^3
same,Tumor Volume TV (mean ± SD) d 14,[3]; 20 mg/kg,245 ± 117 mm^3
same,Tumor Volume TV (mean ± SD) d 17,[3]; 20 mg/kg,275 ± 112 mm^3
same,Weight (mean ± SD) d 0,[3]; 5 mg/kg,16.7 ± 0.6 g
same,Weight (mean ± SD) d 3,[3]; 5 mg/kg,15.9 ± 0.7 g
same,Weight (mean ± SD) d 7,[3]; 5 mg/kg,15.0 ± 0.9 g
same,Weight (mean ± SD) d 10,[3]; 5 mg/kg,14.5 ± 1.2 g
same,Weight (mean ± SD) d 14,[3]; 5 mg/kg,14.1 ± 1.0 g
same,Weight (mean ± SD) d 17,[3]; 5 mg/kg,13.5 ± 0.9 g
same,Weight (mean ± SD) d 21,[3]; 5 mg/kg,13.3 ± 1.0 g
same,Weight (mean ± SD) d 0,[3]; 10 mg/kg,17.5 ± 1.6 g
same,Weight (mean ± SD) d 3,[3]; 10 mg/kg,16.6 ± 1.9 g
same,Weight (mean ± SD) d 7,[3]; 10 mg/kg,15.8 ± 2.0 g
same,Weight (mean ± SD) d 10,[3]; 10 mg/kg,15.7 ± 2.0 g
same,Weight (mean ± SD) d 14,[3]; 10 mg/kg,14.8 ± 1.8 g
same,Weight (mean ± SD) d 17,[3]; 10 mg/kg,14.2 ± 1.7 g
same,Weight (mean ± SD) d 21,[3]; 10 mg/kg,13.5 ± 1.6 g
same,Weight (mean ± SD) d 0,[3]; 20 mg/kg,16.7 ± 0.5 g
same,Weight (mean ± SD) d 3,[3]; 20 mg/kg,16.1 ± 0.4 g
same,Weight (mean ± SD) d 7,[3]; 20 mg/kg,14.6 ± 0.4 g
same,Weight (mean ± SD) d 10,[3]; 20 mg/kg,14.7 ± 0.4 g
same,Weight (mean ± SD) d 14,[3]; 20 mg/kg,13.7 ± 0.3 g
same,Weight (mean ± SD) d 17,[3]; 20 mg/kg,13.0 ± 0.3 g
same,Weight (mean ± SD) d 21,[3]; 20 mg/kg,13.1 ± 0.6 g
